Publication PMC4628008, “Characterization of Lactobacillus salivarius alanine racemase: short-chain carboxylate-activation and the role of A131” (SpringerPlus, 2015)
Residue numbers refer to the chain shown, from its start. Numbers in names are those of the source.

B1: L. salivarius alanine racemase (ALR) (Ligilactobacillus salivarius UCC118) (protein)
chain: MVIGRHRNTRAIISLEAIKHNVATQISKLKDGQSLFAVVKANAYGHGMIPVAKAAKEAGANGFCVAIIDEGIALRESGIKDPILILGVNPASEAVCMAKHDLSVAVGTLEFLTEAQKLLQEEKQRLKIHLALDTGMGRIGFRNTEDLKEAVDFIEKHSDQLKCEGVFTHFSTADSKDPAYFEKQSQKFDELVGVLKKKPKYIHQANSATALWHPNFEGNLVRMGISMYGLNPSGDMIDETWNLEPALSLESELVAVKEVEAGSSIGYGATYTSSQSEWIGTVPIGYADGWLRRMQGFKVLIDGQYCEIVGRVCMDQFMVRLPKKYDLGTKVTLIGENNGKVITAQDVANYADTIHYEIMCNITERVPRIYK
B2: L. salivarius alanine racemase (ALR) (Ligilactobacillus salivarius UCC118; A131K) (protein)
chain: B1 chain with A131K

Experiments:
[1] = biological target: T1, L. salivarius alanine racemase (ALR) (Ligilactobacillus salivarius, UniProt Q1WV14, A131K); experiment: UPLC activity assay; format: biochemical; details: 20 mM L-alanine; 0.05 mM PLP; pH 7.0 (MES), 30 °C
T1 construct: full-length ORF in pET-28a (NdeI/XhoI, own stop codon), N-terminal His tag, tag kept; E. coli BL21-CodonPlus(DE3)-RIPL

[2] = biological target: T2, L. salivarius alanine racemase (ALR) (Ligilactobacillus salivarius, UniProt Q1WV14); experiment: UPLC activity assay; format: biochemical; details: 20 mM L-alanine; 0.05 mM PLP; pH 7.0 (MES), 30 °C
T2 construct: full-length ORF in pET-28a (NdeI/XhoI, own stop codon), N-terminal His tag, tag kept; E. coli BL21-CodonPlus(DE3)-RIPL
T2 sequence (Q1WV14 1-371): B1 chain

[3] = biological target: T2, L. salivarius alanine racemase (ALR); experiment: UPLC activity assay; format: biochemical; details: 20 mM L-alanine; 0.05 mM PLP; pH 7.0 (MES), 30 °C; activator
purified protein = substrate: C[C@H](N)C(=O)O; experiment: purified protein; details: no acetate, 0.05 mM PLP, pH 7.0 (MES), 30 °C

T1 sequence (Q1WV14 whole entry A131K): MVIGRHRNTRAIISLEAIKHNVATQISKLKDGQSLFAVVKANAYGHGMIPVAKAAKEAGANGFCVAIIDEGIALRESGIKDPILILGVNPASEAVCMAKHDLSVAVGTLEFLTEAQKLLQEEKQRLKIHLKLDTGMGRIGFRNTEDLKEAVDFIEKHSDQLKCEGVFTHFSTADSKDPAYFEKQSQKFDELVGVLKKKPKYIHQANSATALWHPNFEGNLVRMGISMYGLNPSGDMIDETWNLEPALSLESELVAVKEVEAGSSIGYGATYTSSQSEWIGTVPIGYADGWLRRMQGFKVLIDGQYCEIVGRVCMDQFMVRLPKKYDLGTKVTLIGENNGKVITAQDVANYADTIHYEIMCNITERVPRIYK

Molecule	relative activity at 1 mM (inhibition) [1]	relative activity at 1 mM (inhibition) [2]	relative activity at 1 mM (activation) [3]	Km (purified protein)
O=C(O)CC(=O)C(=O)O [oxaloacetate]	succinate, pyruvate, 2-oxoglutarate, oxaloacetate and aspartate also more strongly inhibited ALR^A131K than ALR			
CC(=O)C(=O)O [pyruvate]	succinate, pyruvate, 2-oxoglutarate, oxaloacetate and aspartate also more strongly inhibited ALR^A131K than ALR			
CC(O)C(=O)O (racemic) [D, L-lactate]	ALR and ALR^A131K were both inhibited by D, L-lactate	ALR and ALR^A131K were both inhibited by D, L-lactate		
CCC(=O)O [propionate]	both propionate and butyrate strongly inhibited ALR^A131K		they strongly activated L. salivarius ALR	
CCCC(=O)O [butyrate]	both propionate and butyrate strongly inhibited ALR^A131K		they strongly activated L. salivarius ALR	
B1				11.5 mM
B2				9.20 mM
